The values that follow come from patent publication US20190367868A1, “NEURONS AND COMPOSITIONS AND METHODS FOR PRODUCING THE SAME” (President and Fellows of Harvard College, priority 2015, published 2019).

What all share (format): cell-based, human
The test system of assay [1] is HUES9-derived motor neurons. As to the kind of experiment: GCaMP6 Ca2+ imaging after GABA and AMPA application. Conditions: 100 μM, motor neurons cultured for 3 weeks after sphere dissociation. As for the experimental part:
Patch-clamp recordings were performed to further understand the electrophysiological characteristics of motor neurons from dissociated spheres.
For Ca^2+ imaging during the GABA switchover experiment cells were transduced with AAV1.Syn.GCaMP6s.WPRE.SV40 4 days after plating. During recording, coverslips were transferred to a perfusion chamber mounted on a Nikon Eclipse TE2000 microscope. Time-lapse recordings were performed at RT at a rate of 1 frame per second. GABA and AMPA were prepared and applied for 10 seconds in the same bath solution as used for electrophysiology. Mean fluorescent intensity of GCaMP6 fluorescence was measured in soma by ImageJ (U.S. National Institutes of Health, available at the world wide web at subdomain //imagej.nih.gov/ij/) and plotted by Igor. The amplitude was normalized to baseline fluorescent level (mean of 5 frames before drug application) for each cell. Background fluorescent level was determined in a cell-free area for each recording and subtracted.

The subject of assay [2] is HUES8-derived cortical neurons. The experiment in a line: phospho-CREB immunocytochemistry after KCl depolarization of dissociated cortical neurons. The source says:
(§1) It is well known that synaptic activation through depolarization induces a transcriptional response in neurons (Ebert and Greenberg, 2013; Flavell et al., 2008; Hong et al., 2008; Lin et al., 2008). A key event in many types of neurons, including cortical neurons, is the phosphorylation of the transcription factor CREB. To examine whether neurons from dissociated cortical spheres responded to activation, we depolarized them with KCl.
(§2) Cell cultures were fixed in 4% paraformaldehyde (PFA) in PBS at room temperature (RT) for 20 min, then blocked for 20 min in 5% horse serum (HS) (Gibco) and 0.1% Triton X-100 (Sigma) in PBS. Cells were incubated with primary antibodies overnight at 4° C. Secondary antibodies were applied for 1 hr at room temperature. Whole spheres were cleared using the SeeDB protocol as follows: samples were fixed in 4% PFA and blocked for 24-48 hrs in 0.1% Triton X-100 and 5% HS at 4° C. Samples were then incubated with primary antibodies for 2-3 days at 4° C. in either blocking solution or 10% HS. Samples were washed with PBS 3 times and incubated with secondary antibodies for 3 days in either blocking solution or 10% HS. Following washing with PBS, samples were serially incubated in 20%, 40%, 60%, and 80% (wt/vol) fructose for 6-12 hrs at 25° C. Samples were immersed in 100% (wt/vol) fructose for 24 hrs, followed by SeeDB (115%, wt/vol) for at least 24 hrs at 25° C. All solutions were prepared with H2O and contained 0.5% α-thioglycerol. Samples were stored in SeeDB at 4° C.
The primary antibodies used in this study were raised against PAX6 (Covance), OTX1-2, Ki67, TBR1, SATB2, CTIP2, and ISL1 (Abcam), GLUR1, and ChAT (Millipore), SYNAPSINI (Synaptic System), TUJ1 (Covance), and MAP2 (Lifespan Biosciences). Secondary antibodies were AlexaFluor488, -546, -555, and -647-conjugated antibodies raised against the appropriate species (Invitrogen). Immunocytochemical images were acquired on the Opera High-Content Screening System (PerkinElmer). Immunohistochemical images and Ca^2+ imaging was acquired on the Nikon Eclipse TE2000-S microscope equipped with a heated stage and a humidified chamber with atmospheric control. 3D LSFM was performed on the ZEISS Lightsheet.Z1 Microscope Quantitative image analysis of neuronal cultures was done using PerkinElmer Columbus Image Data Storage and Analysis System v2.3.3.
[…] Neurons were silenced overnight with TTX (Natchannel-blocker) (EMD Bioscience, 1 μM) and AP-V (NMDAR antagonist) (Sigma Aldrich, 100 μM), two compounds that together inhibit any spontaneous activity in cultured neurons. […] Phospho-CREB was detected by immunostaining as described.

For assay [3], the system named is dissociated neurons from motor neuron spheres. As to the kind of experiment: phospho-CREB immunocytochemistry after KCl depolarization of motor neurons. As for the experimental part:
When stimulated with sonic hedgehog and retinoic acid at the proper doses and time points, differentiating cells within the spheres adopt the motor neuron fate and can be dissociated and replated without glial feeder layers.
as §2, with “All solutions were prepared with H2O and contained 0.5% α-thioglycerol. Samples were stored in SeeDB at 4° C.” left out
KCl experiments were performed on spheres at day 20 of differentiation and on dissociated neurons 10 days after dissociation. […] Phospho-CREB was detected by immunostaining as described.

In assay [4] the test system is cortical neurons from dissociated cortical spheres. The experiment in a line: qRT-PCR of activity-induced genes after KCl stimulation of cortical neurons. The note with it: KCl-stimulated cortical neurons, by one hour after stimulation.
From the text: as §1
Total RNA was isolated using RNeasy mini kit (QIAGEN) and subsequent cDNA synthesis with iSCRIPT (Bio-Rad). qRT-PCR was then performed using SYBER green (Bio-Rad) on a QuantStudio™ 12 K Flex Real-Time PCR System (Life Technologies). Quantitative levels for all genes were normalized to endogenous GAPDH. Expression levels of individual genes were normalized to the levels in undifferentiated human ESC/iPSC of each line. For KCL experiments, expression levels were normalized to the levels in untreated cells.
KCl experiments were performed on spheres at day 20 of differentiation and on dissociated neurons 10 days after dissociation. Neurons were silenced overnight with TTX (Natchannel-blocker) (EMD Bioscience, 1 μM) and AP-V (NMDAR antagonist) (Sigma Aldrich, 100 μM), two compounds that together inhibit any spontaneous activity in cultured neurons. […] Phospho-CREB was detected by immunostaining as described.
Background: Quantitative PCR measures a nucleic acid by following its amplification.

Values joined by “and” are separate entries in the source; they are usually repeats but may differ in a detail not shown here. Identical values can stand only once.

In the case of `Cc1o[nH]c(=O)c1CC(N)C(=O)O` (centres unmarked) [AMPA], in assay [1], the “intracellular Ca2+ response (GCaMP6 fluorescence)” value was “responded”.
The same measure, in the same setting: the result for `NCCCC(=O)O` [GABA] reads “responded”.
Regarding `[Cl-].[K+]` [KCl], in assay [2] (HUES8-derived cortical neurons 20 days after dissociation, KCl (60 mM) for 30 min, replicates and average of three independent experiments), the “relative proportion of neurons positive for phospho-CREB, 30 min KCl” value is 45% and 35% and 38%. Further, the “relative proportion of neurons positive for phospho-CREB, 1 hr KCl” value in assay [2] (HUES8-derived cortical neurons 20 days after dissociation, KCl (60 mM) for 1 hr, replicates and average of three independent experiments) is 38% and 34% and 32%. Also, in assay [2] (HUES8-derived cortical neurons 20 days after dissociation, KCl (60 mM) for 6 hrs, replicates and average of three independent experiments), the “relative proportion of neurons positive for phospho-CREB, 6 hr KCl” value was 29% (2×) and 36%. In assay [2] (neurons from dissociated cortical spheres depolarized with KCl), the “phosphorylation of CREB after depolarization” value is given as “robust phosphorylation of CREB”. Further, the “phosphorylation of CREB in motor neurons after KCl depolarization” value in assay [3] is “phosphorylation of CREB”. Further, the “transcription of the early-induced genes NPAS4, cFOS, and ARC” value in assay [4] is on record as “increased transcription”.
